{
  "source": "BindingDB's records for doi:10.1016/j.bmcl.2007.02.076",
  "about": "(Bristol-Myers Squibb Pharmaceutical Research Institute, 2007)",
  "data": [
    {"assay": "Inhibition of pTACE", "units": {"IC50": "nM"}, "values": [
      {"smiles": "Cc1cc(COc2ccc(C(=O)Nc3ccccc3C(=O)c3c[nH]c(=O)[nH]3)cc2)c2ccccc2n1", "note": "[4-((2-methylquinolin-4-yl)methoxy)-N-(2-(2-oxo-2,3-dihydro-1H-imidazole-5-carbonyl)phenyl)benzamide]", "IC50": 9},
      {"smiles": "Cc1cc(COc2ccc(C(=O)Nc3ccccc3Cc3c[nH]c(=O)[nH]3)cc2)c2ccccc2n1", "note": "[4-((2-methylquinolin-4-yl)methoxy)-N-(2-((2-oxo-2,3-dihydro-1H-imidazol-5-yl)methyl)phenyl)benzamide]", "IC50": 1600},
      {"smiles": "Cc1cc(COc2ccc(C(=O)Nc3ccccc3Cc3n[nH]c(=O)[nH]3)cc2)c2ccccc2n1", "note": "[4-((2-methylquinolin-4-yl)methoxy)-N-(2-((5-oxo-4,5-dihydro-1H-1,2,4-triazol-3-yl)methyl)phenyl)benzamide]", "IC50": 34},
      {"smiles": "Cc1cc(COc2ccc(C(=O)NCc3n[nH]c(=O)[nH]3)cc2)c2ccccc2n1", "note": "[4-((2-methylquinolin-4-yl)methoxy)-N-((5-oxo-4,5-dihydro-1H-1,2,4-triazol-3-yl)methyl)benzamide]", "IC50": "> 1000"},
      {"smiles": "Cc1cc(COc2ccc(S(=O)(=O)NCc3n[nH]c(=O)[nH]3)cc2)c2ccccc2n1", "note": "[4-((2-methylquinolin-4-yl)methoxy)-N-((5-oxo-4,5-dihydro-1H-1,2,4-triazol-3-yl)methyl)benzenesulfonamide]", "IC50": 439},
      {"smiles": "Cc1cc(COc2ccc(C(=O)Nc3ccccc3-c3[nH]c(=O)[nH]c3O)cc2)c2ccccc2n1", "note": "[N-(2-(2,5-dioxoimidazolidin-4-yl)phenyl)-4-((2-methylquinolin-4-yl)methoxy)benzamide]", "IC50": 14},
      {"smiles": "Cc1cc(COc2ccc(C(=O)NCC3(C)NC(=O)NC3=O)cc2)c2ccccc2n1", "note": "(stereo not drawn) [N-((4-methyl-2,5-dioxoimidazolidin-4-yl)methyl)-4-((2-methylquinolin-4-yl)methoxy)benzamide]", "IC50": 29},
      {"smiles": "Cc1cc(COc2ccc(S(=O)(=O)NCC3(C)NC(=O)NC3=O)cc2)c2ccccc2n1", "note": "(stereo not drawn) [N-((4-methyl-2,5-dioxoimidazolidin-4-yl)methyl)-4-((2-methylquinolin-4-yl)methoxy)benzenesulfonamide]", "IC50": 37}
    ]}
  ]
}
